Article PMC8800111 (The Journal of Biological Chemistry, 2021)

What was measured:
[1] = biological target: proteins of U3A human fibrosarcoma cells (4462 proteins detected) (Homo sapiens, UniProt Q14847); type: cell-based; conditions: protein LASP1, U3A cells
[2] = biological target: proteins of U3A human fibrosarcoma cells (4462 proteins detected) (Homo sapiens, UniProt P29034); type: cell-based; conditions: protein S100A2, U3A cells
STAT3-dependent genes = test system: STAT3-dependent genes; design: method as in PMID 33373063; conditions: chronic lymphocytic leukemia; cited from earlier work
DHFR = biological target: T1, DHFR (Homo sapiens, UniProt P00374); assay: Cellular thermal shift assay (CETSA) in intact U3A cells; type: cell-based; conditions: 10 μM, 10 min
T1 sequence (P00374 1-187): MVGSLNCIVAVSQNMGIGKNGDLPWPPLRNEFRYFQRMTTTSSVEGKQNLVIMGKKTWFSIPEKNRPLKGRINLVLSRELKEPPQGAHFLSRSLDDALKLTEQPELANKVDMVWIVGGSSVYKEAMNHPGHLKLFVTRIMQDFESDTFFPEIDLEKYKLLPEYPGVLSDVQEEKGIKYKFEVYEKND
Protocol: Protein abundance was measured by immunoblotting and band quantification.
U3A cells were cultured in DMEM (Thermo Fisher Scientific) with 10% heat-inactivated fetal bovine serum and 1% penicillin/streptomycin. […] Cells were washed once with PBS, harvested using trypsin, and centrifuged at 300g. The pellet was resuspended in Tris-buffered saline (TBS) supplemented with cOmplete protease inhibitor cocktail (Roche), aliquoted (50 μl; 8 × 10^5 cells per temperature) into PCR strip tubes, and heated at the indicated temperature in a Veriti Thermal Cycler (Applied Biosystems) for 3 min, then cooled for another 3 min at room temperature. Cells were then lysed by freeze–thawing three times with 3-min incubations in an ethanol/dry ice bath and a water bath at 37 °C. The lysates were then centrifuged at 17,000g for 20 min at 4 °C to remove cellular debris and pelleted protein aggregates. Supernatants (40 μl) were transferred to new tubes and prepared for immunoblotting. […] Briefly, U3A cells in exponential growth rate were collected, resuspended in TBS supplemented with cOmplete protease inhibitor cocktail (Roche), lysed by freeze–thaw cycle, and centrifuged at 17,000g for 20 min at 4 °C. […] Band intensities were quantified using Fiji ([42]) and then plotted and fitted in GraphPad Prism (GraphPad Software, Inc) to obtain apparent Tagg values.

[3] = Apoptosis assay (FITC annexin V / propidium iodide flow cytometry); type: cell-based; conditions: human; U3A cells, 6 h time point, same treatment as ATP assay; read-out: viable cells

proteins of U3A human fibrosarcoma cells (4462 proteins detected) (Homo sapiens, UniProt P29034), sequence (P29034 whole entry): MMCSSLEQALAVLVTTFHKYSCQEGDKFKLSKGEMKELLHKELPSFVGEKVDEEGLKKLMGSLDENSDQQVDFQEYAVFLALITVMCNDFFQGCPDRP
proteins of U3A human fibrosarcoma cells (4462 proteins detected) (Homo sapiens, UniProt Q14847), sequence (Q14847 whole entry): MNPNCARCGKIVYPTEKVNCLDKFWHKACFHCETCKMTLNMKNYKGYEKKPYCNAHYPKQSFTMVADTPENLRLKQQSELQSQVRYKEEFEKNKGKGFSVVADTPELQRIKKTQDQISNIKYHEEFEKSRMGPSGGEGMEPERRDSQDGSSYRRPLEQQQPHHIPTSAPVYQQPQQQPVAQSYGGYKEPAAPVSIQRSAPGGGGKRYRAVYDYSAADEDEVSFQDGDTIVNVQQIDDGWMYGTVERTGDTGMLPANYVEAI

SMILES: CCc1nc(N)nc(N)c1-c1ccc(Cl)cc1 [pyrimethamine]
- Log2 (PYR/DMSO) [1]: -0.04
- Log2 (PYR/DMSO) [2]: -0.04
- inhibition of expression of STAT3-dependent genes in patients (STAT3-dependent genes): on-target activity
- DHFR aggregation temperature (Tagg) in the presence of drug (DHFR): 50.6 °C
- viability at 6 h, 10 μM [3]: ~100%
